This is an account of results in BindingDB's records for patent US20250230147 (Genentech, 2025).

Each structure is given as a SMILES string. pIC50: −log10 of the molar value.

In general, pIC50 refers to the negative decadic logarithm of the IC50, by convention in mol/L. Low values mean a high IC50, high ones a low IC50.

Test [1] addresses E3 ubiquitin-protein ligase CBL (Homo sapiens, UniProt P22681). In words: Cbl-b and c-Cbl SPR Assay.
For test [2], the target named is E3 ubiquitin-protein ligase CBL-B (Homo sapiens, UniProt Q13191). In words: Cbl-b and c-Cbl SPR Assay.
Chain of E3 ubiquitin-protein ligase CBL-B (Q13191 whole entry): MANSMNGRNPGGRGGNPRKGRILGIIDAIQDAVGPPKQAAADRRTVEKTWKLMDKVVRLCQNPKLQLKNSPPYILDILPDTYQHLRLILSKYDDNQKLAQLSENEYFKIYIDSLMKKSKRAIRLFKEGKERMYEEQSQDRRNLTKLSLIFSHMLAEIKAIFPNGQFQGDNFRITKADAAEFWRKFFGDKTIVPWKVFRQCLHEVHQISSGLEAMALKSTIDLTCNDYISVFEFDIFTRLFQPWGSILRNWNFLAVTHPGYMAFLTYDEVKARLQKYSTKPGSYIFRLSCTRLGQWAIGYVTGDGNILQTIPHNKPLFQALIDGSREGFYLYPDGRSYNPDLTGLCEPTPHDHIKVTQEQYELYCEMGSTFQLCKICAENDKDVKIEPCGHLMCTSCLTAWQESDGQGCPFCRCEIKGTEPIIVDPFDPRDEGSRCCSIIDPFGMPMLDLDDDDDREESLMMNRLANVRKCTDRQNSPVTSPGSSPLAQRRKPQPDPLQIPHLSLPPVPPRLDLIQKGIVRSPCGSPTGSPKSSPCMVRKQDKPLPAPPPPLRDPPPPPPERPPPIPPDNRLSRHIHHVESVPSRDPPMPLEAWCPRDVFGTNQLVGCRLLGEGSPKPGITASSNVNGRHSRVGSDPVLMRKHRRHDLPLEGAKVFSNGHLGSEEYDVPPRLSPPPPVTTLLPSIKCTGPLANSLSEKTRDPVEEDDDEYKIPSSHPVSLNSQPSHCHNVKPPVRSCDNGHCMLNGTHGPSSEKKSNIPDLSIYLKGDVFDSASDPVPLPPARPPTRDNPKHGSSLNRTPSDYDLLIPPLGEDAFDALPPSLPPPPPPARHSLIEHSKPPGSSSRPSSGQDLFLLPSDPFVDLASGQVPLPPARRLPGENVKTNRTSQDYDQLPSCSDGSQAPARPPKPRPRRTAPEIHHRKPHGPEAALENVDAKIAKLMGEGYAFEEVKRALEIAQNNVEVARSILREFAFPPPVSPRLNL

As to `Cn1cnnc1[C@H](F)[C@](C)(F)c1cccc(N2Cc3c(cc(CN4CCC5(CC5)C4)cc3C(F)(F)F)C2=O)c1` [US20250230147, Compound 127], the pIC50 in test [1] was 6.77; in test [2], 7.11.
Consider `Cn1cnnc1[C@H](F)[C@@](C)(F)c1cccc(N2Cc3c(cc(CN4CCC5(CC5)C4)cc3C(F)(F)F)C2=O)c1` [US20250230147, Compound 128], for which the negative-log IC50 (pIC50) was 5.80 in test [1] and 6.32 in test [2].
Turning to `Cn1cnnc1[C@@H](F)[C@](C)(F)c1cccc(N2Cc3c(cc(CN4CCC5(CC5)C4)cc3C(F)(F)F)C2=O)c1` [US20250230147, Compound 129], the negative logarithm of the IC50 (pIC50) was 6.34 in test [1] and 6.89 in test [2].
Turning to `Cn1cnnc1[C@@H](F)[C@@](C)(F)c1cccc(N2Cc3c(cc(CN4CCC5(CC5)C4)cc3C(F)(F)F)C2=O)c1` [US20250230147, Compound 130], the results for the pIC50 in test [1] and in test [2] were 4.89 and 5.40, respectively.
For `Cn1cnnc1[C@H](F)C1(c2cccc(N3Cc4c(Cl)cc(CNC5(C)CCC5)cc4C3=O)c2)COC1` [US20250230147, Compound 470] the same measures were 8.07 and 7.92.
